Experimental data taken from US9352010B2, “Treatment of HIV-1 infection and AIDS” (The J. David Gladstone Institutes, priority 2011, dated 2016).
Residues, ends and D or L forms follow the SMILES beside them. *: point of attachment. Cbz = O=C(OCc1ccccc1)*; CH2F = FC*

How the values were obtained:
[1] = test system: AIM2 (Absent in melanoma-2) inflammasome; conditions: by preventing ASC oligomerisation; cited from earlier work
[2] = test system: CFSE-labeled CD4 T-cells; type: cell-based, human
Description: (A) Experimental strategy to assess indirect cell killing in HIV-1-infected human lymphoid cultures. Fresh human tonsil tissue from a single donor is processed into HLAC, and then separated into two fractions. One fraction is challenged with HIV-1 and cultured for 6 days, allowing viral spread. On day 5, the uninfected fraction is treated with AZT (5 μM) and labeled with CFSE (1 μM). On day 6, the infected and CFSE-labeled (i.e., uninfected) cultures are mixed and co-cultured in the presence of AZT. […] After 6 days of co-culturing, the number of viable CFSE-positive cells is determined by flow cytometry. (B) Flow cytometry analysis of the mixed HLACs. Indirect killing is determined by gating on live CFSE-positive cells in the mixed cultures. Effector cells are either infected or uninfected cells. […] CFSE-labeled cells mixed with uninfected or infected cells were cultured in the presence of 5 μM AZT alone or together with 250 nM AMD3100. Data represent live CFSE-positive cells 6 days after co-culture with infected or uninfected effector cells. […] The absolute numbers of viable CFSE-positive CD4 and CD8 T-cells and B cells were determined. Percentages are normalized to the number of viable CFSE-positive cells co-cultured with uninfected cells in the presence of AZT, as depicted by (*). Error bars represent standard deviations of three samples from the same donor. […] See also FIG. 3.
Human tonsil or splenic tissues from routine tonsillectomies were obtained from the National Disease Research Interchange and the Cooperative Human Tissue Network and processed as previously described (Jekle et al., 2003, J Virol 77:5846-5854). In brief, tonsils or spleen were minced, passed through a 40-μm cell strainer, and cultured in 96-well U-bottomed polystyrene plates (2×10^6 cells/well) in medium (200 μl/well) consisting of RPMI 1640 supplemented with 15% heat-inactivated fetal bovine serum, 100 μg/ml gentamicin, 200 μg/ml ampicillin, 1 mM sodium pyruvate, 1% nonessential amino acids (Mediatech), 2 mM L-glutamine, and 1% fungizone (Invitrogen). All HIV-1 infections were carried out with 20-50 ng of HIV-1 p24^gag. Cells were incubated with the virus for 12-16 h, washed extensively, and supplemented with fresh medium. After day 5, infections were monitored by measuring p24gag levels in the culture medium using a FLAQ assay (Hayden et al., 2003, AIDS 17:629-631). Infected and uninfected cultures were manipulated as described for individual experiments. In “indirect killing” assays, unless otherwise stated, drugs were used at the following concentrations: 5 μM AZT; 250 nM AMD3100; 10 μg/ml T20; 100 nM Efavirenz; 1 μM Nevirapine; 30 μM Raltegravir; 60 μM 118-D-24; 5 μM Amprenavir; 5 μM Saquinavir; 5 μM Indinavir. CFSE-labeled cells were activated with PHA (5 μg/ml) and IL-2 (20 ng/ml) 2 days before mixing with effector cells.
Uninfected cells (5×10^6/ml) were labeled with 1 μM CFSE (Molecular Probes C1157), treated with 5 μM AZT for 24 h, and co-cultured with effector cells. CFSE readily diffuses into cells, where intracellular esterases cleave the acetate groups, converting it to a fluorescent, membrane-impermeable dye.

[3] = test system: IL-1β; assay: Release of 17-kDa IL-1β from isolated tonsillar CD4 T-cells (ionophore stimulus); type: cell-based, human; conditions: nigericin 10 μM
Description: For stimulating the processing and secretion of IL-1, CD4 T-cells were isolated from HLACs by positive selection and treated with 0.5 μM PMA ([…], Calbiochem Cat. #524400) for 6 hours at 37° C. PMA induces large intracellular stores of the 35 kDa pro-IL-1β. Cells were then washed with PBS and treated with 10 μM nigericin (Sigma, Cat. # N7143) overnight at 37° C. The potassium ionophore nigericin mediates an elecroneutral exchange of intracellular K^+ ions for extracellular protons, providing a second inflammatory stimulus, which results in the maturation and release of the bioactive 17 kDa IL-1β(Perregaux et al., 1992, J Immunol 149:1294-1303; Perregaux and Gabel, 1994, J Biol Chem 269:15195-15203).
Isolated tonsillar CD4 T-cells were treated overnight with nigericin (10 μM) to provide a second inflammatory stimulus, resulting in maturation and release of bioactive 17-kDa IL-1β. Supernatants from the cell cultures were subjected to SDS-PAGE and immunoblotting. 17-kDa IL-1β was released after treatment with nigericin, but not with calcium ionophore A23187 or the nonspecific cation ionophore monensin. Thus, while these cells are primed, they must receive the appropriate proinflammatory signal for pro-IL-1β processing and release. […]

[4] = test system: CD4 T cells in HIV-1 (NL4-3)-infected HLACs; assay: CD4 T-cell death in HIV-1-infected HLACs, viable CD4 T cells by flow cytometry; type: cell-based, human; conditions: FIG. 15, 4 different donors
[5] = test system: CD4 T cells in HIV-1 (NL4-3)-infected HLACs; assay: as above; type: cell-based, human; conditions: 3 days
Description: HLACs were left uninfected or infected with HIV-1 (NL4-3 clone) in the presence of AZT, efavirenz, AMD3100, or caspase inhibitors (20 μM each), as indicated in FIG. 16. After 3 days, the percentages of viable CD4 T cells in the cultures were determined by flow cytometry.
HLACs were left uninfected or infected with NL4-3 in the presence of no drugs, efavirenz, AMD3100, or caspase inhibitors (50 μM or 100 μM), as indicated in FIG. 16B. After 3 days, the percentages of viable CD4 T cells in the cultures were determined by flow cytometry.

[6] = test system: lactate dehydrogenase (LDH) release; assay: LDH release from HIV-1-infected HLACs (pyroptosis); type: cell-based, human; conditions: caspase inhibitors 50 μM or 100 μM, 3 days, FIG. 16C
Description: Caspase-1 activation can lead to a highly inflammatory form of cell death called pyroptosis. To gain insight into how CD4 T cells die, it was determined whether HIV infection in CD4 T cells induce pyroptosis cell death, as measured by lactate dehydrogenase (LDH) release. HLACs were left uninfected or infected with NL4-3 in the presence of no drugs, efavirenz, AMD3100, or caspase inhibitors (50 μM or 100 μM), as indicated in FIG. 16C. After 3 days, the supernatants were assayed for the cytosolic enzyme lactate dehydrogenase (LDH) and the LDH released by dying cells was quantified.

[7] = test system: human PBMCs; conditions: cited from earlier work
[8] = test system: murine models of inflammatory disease; conditions: cited from earlier work
[9] = molecular target: caspase-1 (Homo sapiens, UniProt P29466); conditions: cited from earlier work
caspase-1, sequence (P29466 120-297 limits assumed): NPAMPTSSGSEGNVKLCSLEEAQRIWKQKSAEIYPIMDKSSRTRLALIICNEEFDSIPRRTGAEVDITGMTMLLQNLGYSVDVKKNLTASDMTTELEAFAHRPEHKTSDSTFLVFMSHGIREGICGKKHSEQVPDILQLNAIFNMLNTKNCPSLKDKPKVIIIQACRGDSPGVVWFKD
caspase-1, sequence (P29466 317-404 limits assumed): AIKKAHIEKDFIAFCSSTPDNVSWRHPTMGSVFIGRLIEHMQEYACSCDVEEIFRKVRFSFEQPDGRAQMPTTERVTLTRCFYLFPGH

[10] = molecular target: caspase-4 (Homo sapiens, UniProt P49662); conditions: read-out: Ki against caspase-4; cited from earlier work
caspase-4, sequence (P49662 81-270 limits assumed): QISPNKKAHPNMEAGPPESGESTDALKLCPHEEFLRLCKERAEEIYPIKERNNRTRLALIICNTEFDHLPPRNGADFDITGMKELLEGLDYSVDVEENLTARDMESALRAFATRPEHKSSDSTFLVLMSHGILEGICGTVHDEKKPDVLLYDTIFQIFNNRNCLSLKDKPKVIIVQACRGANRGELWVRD
caspase-4, sequence (P49662 290-377 limits assumed): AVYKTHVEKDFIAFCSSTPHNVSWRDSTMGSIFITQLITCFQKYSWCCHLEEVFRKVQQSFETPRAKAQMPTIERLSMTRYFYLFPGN

[11] = test system: transient ischemia in rat; conditions: cited from earlier work
[12] = test system: human caspases; conditions: irreversible broad-spectrum; cited from earlier work
[13] = test system: other classes of proteases or other enzymes or receptors; conditions: cited from earlier work
[14] = test system: CI/WR (cold ischemia/warm reperfusion)-induced apoptosis and injury in the liver; conditions: in vivo; cited from earlier work
[15] = test system: patients with hepatic impairment; conditions: phase I; cited from earlier work
[16] = test system: patients with chronic Hepatitis C; conditions: oral or intravenous, 5 mg to 400 mg daily; cited from earlier work

SMILES: CC(C)(O)c1coc(S(=O)(=O)NC(=O)Nc2c3c(cc4c2CCC4)CCC3)c1 [CRID3]
- AIM2 inflammasome [1]: inhibited

SMILES: COC(=O)C[C@H](NC(=O)[C@H](C)NC(=O)[C@@H](NC(=O)OCc1ccccc1)C(C)C)C(=O)CF [Z-VAD-FMK, Z-Val-Ala-Asp(OMe)-Fluoro methyl ester] (Cbz-Val-Ala-Asp(OMe)-CH2F)
- death of abortively infected CD4 T-cells with caspase inhibitors ([2]; 20 μM caspase inhibitor, AZT 5 μM): completely prevented
- nigericin-induced IL-1β release after pre-treatment with caspase inhibitor [3]: blocked
- death of infected CD4 T-cells [4]: inhibit the death of infected CD4 T-cells

SMILES: COC(=O)CC[C@H](NC(=O)[C@H](CC(=O)OC)NC(=O)OCc1ccccc1)C(=O)N[C@H](C(=O)N[C@@H](CC(=O)OC)C(=O)CF)C(C)C [Z-DEVD-FMK]
- reduction of cell death ([2]; 20 μM, specific inhibition of caspase-3): 50%
- CD4 T-cell population whose death was prevented ([5]; 20 μM, FIG. 16A): 50%
- CD4 T-cell death in HIV-infected cultures ([5]; caspase inhibitors 50 μM or 100 μM, FIG. 16B): did not prevent the death
- LDH release from HIV-1 infected cells [6]: did not prevent the LDH release
- death of infected CD4 T-cells [4]: also inhibits death of infected CD4 T cells, however, not as efficient as caspase-1 inhibitors

SMILES: CCO[C@@H]1OC(=O)C[C@@H]1NC(=O)[C@@H]1CCCN1C(=O)[C@@H](NC(=O)c1ccc(N)c(Cl)c1)C(C)(C)C [VX-765, (S)-1-((S)-2-{[1-(4-Amino-3-chloro-phenyl)-methanoyl]-amino}-3,3-dimethyl-butanoyl)-pyrrolidine-2-carboxylic acid ((2R,3S)-2-ethoxy-5-oxo-tetrahydro-furan-3-yl)-amide]
- IL-1β secretion ([7]; Stack et al.): blocked IL-1β secretion
- IC50 ([7]; human PBMCs, read-out: IC50, release of LPS-induced IL-1β and IL-18): ~700 nM
- inflammatory response [8]: reduces inflammatory response

SMILES: O=C[C@H](CC(=O)O)NC(=O)[C@@H]1CCCN2C(=O)CC[C@H](NC(=O)c3nccc4ccccc34)C(=O)N12 [VRT-018858]
- selectivity for caspase 1 and caspase-4 against other caspases [9]: > 100 fold
- Ki ([9]; read-out: Ki against caspase-1): 1.3 nM
- Ki [10]: 0.4 nM
- brain damage induced by transient ischemia [11]: markedly reduced brain damage

SMILES: C[C@H](NC(=O)C(=O)Nc1ccccc1C(C)(C)C)C(=O)N[C@@H](CC(=O)O)C(=O)COc1c(F)c(F)cc(F)c1F [IDN-6556]
- caspase inhibition spectrum [12]: activity against all tested human caspases
- inhibition of other classes of proteases or other enzymes or receptors [13]: no inhibition
- CI/WR-induced apoptosis and injury in the liver and other organs [14]: reduced CI/WR (cold ischemia/warm reperfusion)-induced apoptosis and injury
- tolerability [15]: well tolerated
- efficacy (aminotransferase activity) [16]: efficacious
- tolerability [16]: well tolerated
